According to patent US7488491B2, “Use of glycosylceramides as adjuvants for vaccines against infections and cancer” (New York University, priority 2001, dated 2009):
“Also recorded” adds a separate entry of the source.

What was measured:
Vα14 NKT cells = settings: mice; cited from earlier work
P. yoelii sporozoites [1] = test: Anti-sporozoite antibody titers by indirect immunofluorescence assay (IFA); type: in vivo, Plasmodium yoelii; settings: γ-spz-immunized BALB/c mice
Protocol: Sera of immunized mice were obtained just before their challenge with sporozoites, and their Ab titers were measured using P. yoelii sporozoites in an indirect immunofluorescence assay (IFA). In brief, P. yoelii sporozoites were placed on multispot glass slides, and air-dried. After 1 hour of incubation with the sera, diluted in PBS containing 1% BSA, the slides were washed with PBS and incubated 1 hour with FITC- labelled affinity purified goat anti-mouse Ab (Kirkegaard & Perry Laboratories, Gaithersburg, Md.). The slides were then washed and mounted in PBS containing 50% (v/v) glycerol and 1% (w/v) Evans blue to reduce bleaching. The highest serum dilution resulting in fluorescence of the sporozoites was considered to be the IFA titer. Measurement of Ab Isotype Level by ELISA.
(§1) The present inventors also determined the titers of anti-sporozoite antibodies using an immunofluorescence assay(IFA) of air-dried P. yoelii sporozoites, as well as the titers of antibody against the circumsporozoite (CS) protein, the major surface antigen of sporozoites, using ELISA. The antibody titers were identical among the groups of γ-spz-immunized mice regardless of whether or not they received α-GalCer (FIG. 1A).

[2] = system: circumsporozoite (CS) protein; test: Anti-CS antibody titers and isotypes by ELISA; type: in vivo, P. yoelii; settings: γ-spz-immunized mice
Protocol: Sera of immunized mice were obtained prior to their challenge with sporozoites, and the levels of CS-specific IgM, IgG1, IgG2a, and IgE isotypes were measured using the Mouse Hybridoma Subtyping Kit (Boehringer Mannheim, Mannheim, Germany). Briefly, plates were coated with […] of B cell epitope (QGPGAP)2 (Charoenvit et al., J. Immunol., 146: 1020-1025, 1991) of the P. yoelii CS protein, blocked with PBS containing 1% BSA, and incubated for 1 hour with 1:5 dilution of sera from immunized and non-immunized mice. The plates were then washed and anti-mouse IgM, IgG1a, IgG2a (Boehringer Mannheim) and IgE (Southern Biotechnology Associates, Inc., Birmingham, Ala.) conjugated to peroxidase were added, followed by incubation with the substratre 2,2-Azino-di-[3-ethylbenzthiazoline sulfonate (6)], according the manufacture's instruction.
as §1

[3] = system: nucleoprotein (NP) of the influenza A virus; test: CD8+ T cell anti-influenza response after recombinant Sindbis virus expressing NP epitope; type: in vivo; settings: suboptimal dose (10^5 p.f.u.) recombinant Sindbis virus expressing epitope TYQRTRALV, with α-GalCer
From the text: In yet another specific embodiment, an antigen of the invention is influenza A virus-specific.

B 16-bearing mice = settings: cited from earlier work
[4] = independently of dosage; cited from earlier work
[5] = independently of dosage; cited from earlier work; remark: listed apart in the source
P. yoeli = settings: α-GalCer alone, cited from earlier work
P. berghei = settings: mice; α-GalCer alone; cited from earlier work
[6] = mouse, in vivo; cited from earlier work
[7] = in vivo; cited from earlier work
[8] = system: p18-specific CD8+ T cells (p18 protein of HIV); test: ELISPOT assay of HIV p18-specific CD8+ T cells from immunized mice; settings: mice immunized with CD8+ T cell epitope […] of p18 of HIV
Protocol: An ELISPOT assay was performed to determine the number of CS-specific CD4+ and CD8+ T cells, producing IFN-γ or IL-4 (Miyahira et al., J. Immunol. Methods, 181: 45-54, 1995). Briefly, 96 well nitrocellulose plates (Millipore, Bedford, Mass.) were coated with anti-mouse IFN-γ monoclonal antibodies (mAb), or anti-mouse IL-4 mAb. After overnight incubation at room temperature, the wells were washed repeatedly and blocked with culture medium for 1 hour at 37° C. […] After irradiating the peptide-pulsed target cells, the cells were added to the ELISPOT wells. Untreated target cells were used as negative controls. Serially diluted lymphocytes isolated from the spleen or lymph nodes of immunized mice were co-cultured with 1.5×10^5 target cells in the ELISPOT wells. After incubating the plates 24 h for IFN-γ detection or 48 h for IL-4 detection at 37° C. and 5% CO2, the plates were treated as previously described (Rodrigues et al., J. Immunol., 158: 1268-1274, 1997), and the number of spots corresponding to IFN-γ and IL-4 secreting cells determined.

P. yoelii sporozoites [9] = test: Parasite rRNA in the liver after live sporozoite challenge of immunized mice (real-time RT-PCR)
P. yoelii sporozoites [10] = test: Protection against blood infection (parasitemia in thin blood smears) after challenge with 50 viable sporozoites
From the text: To further assess the adjuvant activity of α-GalCer co-administered with vaccines, parasitemia (i.e., the presence of parasites in the blood) was monitored daily by microscopic examination of thin blood smears. Briefly, BALB/c mice were immunized either intravenously with 1×10^4 γ-spz or subcutaneously with 1×10^7 p.f.u. of AdPyCS, doses which otherwise fail to confer protection against malaria, with or without α-GalCer treatment. Two weeks later, all mice were challenged with 50 viable P. yoelii sporozoites, and determined the occurrence of blood infection by monitoring parasitemia.
To determine the adjuvant effect of α-GalCer on the duration of protection against malaria, parasitemia (i.e., the presence of the parasites in the blood) was monitored daily via microscopic inspection of thin blood smears in two separate experiments. In experiment 1, two groups of mice, one treated with α-GalCer and the other untreated, were immunized with 1×10^4 γ-spz, a dose that fails to confer protection against malaria 2 weeks after immunization. Two weeks later, all mice were challenged with 50 viable P. yoelii sporozoites, and the occurrence of blood infection was determined by monitoring parasitemia. In experiment 2, two groups of mice, one treated with α-GalCer and the other untreated, were immunized with 1×10^5 γ-spz, a dose that induces complete protection 2 weeks after immunization but not 4 weeks after. Four weeks later, these immunized mice, as well as naive controls were challenged with 50 live sporozoites, and the course of infection was determined as described above.

[11] = BALB/c mice, 2 μg α-GalCer, 1×10^4 γ-spz i.v.
[12] = BALB/c mice, i.v. 1 × 10^4 γ-spz or s.c. 1 × 10^7 p.f.u. AdPyCS, with or without α-GalCer, challenge with 50 viable P. yoelii sporozoites two weeks later

Structure (SMILES): CCCCCCCCCCCCCCCCCCCCCC[C@@H](O)C(=O)N[C@@H](COC1OC(CO)C(O)C(OC2OC([C@H](O)CO)C(O)C2O)C1O)[C@H](O)[C@H](O)CCCCCCCCCCCCCC (stereo partly drawn) [Galβ1-3Galα1-1′Cer, (2S,3S,4R)-2-amino-1-O-(β-D-galactofuranosyl-(1-4)-α-D-galactopyranosyl)-N-[(R)-2-hydroxytetracosanoyl]-1,3,4-octadecanetriol]
- proliferation of Vα14 NKT cells, compared with α-GalCer (Vα14 NKT cells): stimulate proliferation of Vα14 NKT cells in mice, although with lower efficiency

Structure (SMILES): CCCCCCCCCCCCCCCCCCCCCCCCCC(=O)N[C@@H](CO[C@H]1O[C@H](CO)[C@@H](O)[C@H](O)[C@H]1O)[C@H](O)[C@H](O)CCCCCCCCCCCCCC [α-GlcCer, (2S,3S,4R)-1—O-(α-D-glucopyranosyl)-N-hexacosanoyl-2-amino-1,3,4-octadecanetriol]
- proliferation of Vα14 NKT cells, compared with α-GalCer (Vα14 NKT cells): stimulate proliferation of Vα14 NKT cells in mice, although with lower efficiency

Structure (SMILES): CCCCCCCCCCCCCCCCCCCCCCCCCC(=O)N[C@@H](COC1OC(COC2OC(CO)C(O)C(O)C2O)C(O)C(O)C1O)[C@H](O)[C@H](O)CCCCCCCCCCCCCC (stereo partly drawn) [Galα1-6Galα1-1′Cer, (2S,3S,4R)-2-amino-1—O-(α-D-galactopyranosyl-(1-6)-α-D-galactopyranosyl)-N-hexacosanoyl-1,3,4-octadecanetriol]
- proliferation of Vα14 NKT cells, compared with α-GalCer (Vα14 NKT cells): stimulate proliferation of Vα14 NKT cells in mice, although with lower efficiency

Structure (SMILES): CCCCCCCCCCCCCCCCCCCCCCCCCC(=O)N[C@@H](CO[C@H]1O[C@H](CO)[C@H](O)[C@H](O)[C@H]1O)[C@H](O)[C@H](O)CCCCCCCCCCCCCC [α-GalCer, (2S,3S,4R)-1—O-(α-D-galactopyranosyl)-2-(N-hexacosanoylamino)-1,3,4-octadecanetriol]
- titers of anti-sporozoite antibodies (IFA), α-GalCer vs no α-GalCer (P. yoelii sporozoites [1]): identical
- IgE, IgG1, IgG2a or IgM isotype profiles of anti-CS antibodies, α-GalCer-treated vs untreated [2]: no significant differences
- titers of antibody against the CS protein (ELISA), α-GalCer vs no α-GalCer [2]: identical
- CD8+ T cell anti-influenza response [3]: significantly enhances
- mice bearing tumors cured (B 16-bearing mice; 100 μg/kg KRN7000): 60%
- antimetastatic activities vs OK432, Lentinan and Mitomycin C (B 16-bearing mice; B 16-bearing mice): stronger antimetastatic activities
- toxicity in rodents [4]: does not induce toxicity
- toxicity in monkeys [5]: does not induce toxicity
- anti-malaria activity (inhibition of intra-hepatocytic stages), P. yoeli (P. yoeli; mice): strong anti-malaria activity
- parasite development in the liver of mice lacking either IFN-γ or the IFN-γ receptor (P. yoeli): unable to inhibit parasite development
- parasites in the liver, α-GalCer two days prior to challenge with live sporozoites (P. yoeli): completely eliminates the parasites from the liver
- protection against malaria in mice lacking either CD1d or Vα14 NKT cells (P. yoeli): failed to protect
- anti-malaria activity (inhibition of intra-hepatocytic stages), P. berghei (P. berghei): strong anti-malaria activity
- liver enzyme activities [6]: transient elevation of liver enzyme activities
- complications in human trials [7]: without a notable complication
- level of HIV-specific CD8+ T cell response vs immunized without α-GalCer [8]: ~3 times
- parasite load in the livers, times smaller than with γ-spz alone (P. yoelii sporozoites [9]; BALB/c mice, 2 μg α-GalCer with 1×10^4 γ-spz i.v., challenge 1×10^4 live sporozoites two weeks later): 10 times
- level of protective anti-malaria immunity, α-GalCer on the same day as γ-spz (P. yoelii sporozoites [9]; [11]): highest level of protective anti-malaria immunity
- level of protective immunity, α-GalCer two days after γ-spz immunization (P. yoelii sporozoites [9]; [11]): did not significantly enhance
- protective immunity, α-GalCer two days prior to γ-spz immunization (P. yoelii sporozoites [9]; [11]): completely abolished; also recorded: almost completely abolishes
- protection augmented relative to control, AdPyCS (P. yoelii sporozoites [9]; BALB/c mice, s.c. sub-optimal dose AdPyCS with α-GalCer same day): ~10 times
- protection enhanced, SIN(Mal) (P. yoelii sporozoites [9]; BALB/c mice, s.c. sub-optimal dose SIN(Mal) with α-GalCer same day): 3 times
- γ-spz-induced protective immunity in CD1d-deficient mice (P. yoelii sporozoites [9]; CD1d-deficient mice, BALB/c background, 1×10^4 γ-spz with α-GalCer): failed to enhance
- γ-spz-induced protective immunity in Jα281-deficient mice (P. yoelii sporozoites [9]; Jα281-deficient mice (lack Vα14 NKT cells), 1×10^4 γ-spz with α-GalCer): failed to enhance
- α-GalCer-treated, sporozoite-immunized mice protected, experiment 1 (P. yoelii sporozoites [10]; 1×10^4 γ-spz, challenge with 50 viable sporozoites two weeks later): nine out of ten
- α-GalCer-treated, sporozoite-immunized mice protected, experiment 2 (P. yoelii sporozoites [10]; 1×10^5 γ-spz, challenge with 50 live sporozoites four weeks later): nine out of ten
- % protection (no parasitemia) (P. yoelii sporozoites [10]; [12]): 0%
- Number of mice protected/number challenged (P. yoelii sporozoites [10]; [12]): 0/30
- α-GalCer-treated, γ-spz-immunized mice protected (P. yoelii sporozoites [10]; BALB/c, 1×10^4 γ-spz i.v., challenge 50 viable sporozoites two weeks later): 28 out of 30
- protective effect of sub-optimal dose of AdPyCS with α-GalCer (P. yoelii sporozoites [10]; BALB/c, 1×10^7 p.f.u. AdPyCS s.c., challenge 50 viable sporozoites): strongly enhanced
- protection by α-GalCer alone (P. yoelii sporozoites [10]; BALB/c, no immunogen, challenge 50 viable sporozoites): failed to protect

Structure (SMILES): CCCCCCCCCCCCCCCCCCCCCC[C@@H](O)C(=O)N[C@@H](COC1OC(CO)C(O)C(O)C1OC1OC(CO)C(O)C(O)C1O)[C@H](O)[C@H](O)CCCCCCCCCCCCCC (stereo partly drawn) [Galα1-2Galα1-1′Cer, (2S,3S,4R)-2-amino-1-O-(α-D-glucopyranosyl-(1-2)-α-D-galactopyranosyl)-N-[(R)-2-hydroxytetracosanoyl]-1,3,4-octadecanetriol]
- proliferation of Vα14 NKT cells, compared with α-GalCer (Vα14 NKT cells): stimulate proliferation of Vα14 NKT cells in mice, although with lower efficiency
